Reference: BindingDB's records for patent US20240308995 (Biogen Ma, 2024)
pIC50: −log10 of the molar value.

Target: T1, Protein O-GlcNAcase (Homo sapiens, UniProt O60502)
T1 sequence (O60502 whole entry): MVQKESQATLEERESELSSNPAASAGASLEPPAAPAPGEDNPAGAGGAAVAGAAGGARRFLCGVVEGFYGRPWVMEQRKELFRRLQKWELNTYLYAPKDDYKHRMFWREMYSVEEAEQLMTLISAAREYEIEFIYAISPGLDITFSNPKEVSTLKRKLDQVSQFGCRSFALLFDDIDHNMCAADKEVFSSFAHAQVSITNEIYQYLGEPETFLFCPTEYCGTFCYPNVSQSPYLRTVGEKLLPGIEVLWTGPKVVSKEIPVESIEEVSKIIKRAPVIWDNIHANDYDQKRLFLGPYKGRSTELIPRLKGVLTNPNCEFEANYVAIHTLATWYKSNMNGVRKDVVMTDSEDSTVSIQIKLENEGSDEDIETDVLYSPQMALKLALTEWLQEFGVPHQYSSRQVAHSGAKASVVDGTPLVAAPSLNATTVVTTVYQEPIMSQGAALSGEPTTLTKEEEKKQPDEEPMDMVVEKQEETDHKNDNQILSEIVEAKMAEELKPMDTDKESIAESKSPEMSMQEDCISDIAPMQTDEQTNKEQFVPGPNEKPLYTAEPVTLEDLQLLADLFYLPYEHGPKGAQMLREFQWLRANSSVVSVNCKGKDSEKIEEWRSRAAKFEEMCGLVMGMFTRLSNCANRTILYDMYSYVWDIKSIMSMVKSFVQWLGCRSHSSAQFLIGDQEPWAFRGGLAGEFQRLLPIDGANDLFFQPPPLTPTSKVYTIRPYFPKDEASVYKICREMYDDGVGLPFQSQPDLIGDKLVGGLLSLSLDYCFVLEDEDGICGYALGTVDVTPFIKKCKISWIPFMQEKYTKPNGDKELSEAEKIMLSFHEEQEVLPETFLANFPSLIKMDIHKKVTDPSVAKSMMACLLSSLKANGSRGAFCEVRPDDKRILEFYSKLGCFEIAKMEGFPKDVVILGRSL
Experiment: Enzyme Inhibition Biochemical Assay
Method: Recombinant full length human OGA enzyme was purchased from Origene. 4-MUGlcNAc substrate was purchased from Sigma. All other reagents were purchased from Sigma or Fisher. Assay buffer consists of the McIlvaine buffer system, pH 6.4 (0.2M Na2HPO4 mixed with 0.1M citric acid) and 0.01% BSA. […] Reactions were incubated for 90 minutes at room temperature and quenched with 40 μl of 3M glycine, pH 10 and read on a Perkin Elmer Envision plate reader (Ex: 355 nm/Em: 460 nm). Compounds were tested with a 10-point dose-response starting from 20 μM with a 4-fold dilution. Data was fit using GraphPad Prism using a 4-parameter fit with variable slope.

pIC50: > 9.00
SMILES: CC(=O)Nc1ncc(CN2C[C@H](Oc3cc(=O)n(C)cn3)C[C@@H]2C)s1 [US20240308995, Example 1-70]
